Experiments:
Assay type in all cases: in vivo
Lindernia procumbens [1] = experiment: Herbicidal efficacy on paddy field weeds of pre-emergence stage (Pre), Test Example 1; conditions: 1000 g/ha as active ingredient, examined after 21 days
Description: (§1) 75 cm^2 plastic pots were filled with the soil (clay loam). Seeds of Scirpus juncoides, a paddy weed, were planted, and they were covered with 75 cm^3 of soil mixed with seeds of Lindernia procumbens and then filled with water depth of 5 cm. Next day, predetermined effective dosage (1000 g/ha as an active ingredient) of formulations comprising a compound of the present invention as an active ingredient which were prepared following Formulation Examples 1 to 4 was diluted with water and applied dropwise to the surface of the water. Then, they were brought up in a greenhouse and the herbicidal effect was examined after 21 days from the treatment by comparing with the result of an untreated group according to the following criteria. In the table, “-” means that the test was not performed.
(§2) Criteria for herbicidal efficacy (growth inhibiting degree) and phytotoxicity. • 5 . . . 100% herbicidal effect, phytotoxicity. • 4 . . . 90%-99% herbicidal effect, phytotoxicity. • 3 . . . 70%-89% herbicidal effect, phytotoxicity. • 2 . . . 40%-69% herbicidal effect, phytotoxicity. • 1 . . . 1%-39% herbicidal effect, phytotoxicity. • 0 . . . 0% herbicidal effect, phytotoxicity.

Lindernia procumbens [2] = experiment: Herbicidal effect on paddy field weeds of post-emergence stage (Post), Test Example 2; conditions: one-leaf stage, 1000 g/ha as active ingredient, examined after 21 days
Text: as §2
(§3) 75 cm^2 plastic pots were filled with the soil (clay loam). Seeds of Scirpus juncoides and Echinochloa crus-galli, paddy weeds, were planted, and they were covered with 75 cm^3 of soil mixed with seeds of Lindernia procumbens and then filled with water depth of 5 cm and they were brought up in a greenhouse. When the test plants were at one-leaf stage, predetermined effective dosage (1000 g/ha as an active ingredient) of formulations comprising a compound of the present invention as an active ingredient was applied to the pot water. Then, they were brought up in a greenhouse and the herbicidal efficacy was examined after 21 days from the treatment by comparing with the result of an untreated group according to the criteria of Test Example 1. In the table, “-” means that the test was not performed.

Scirpus juncoides [3] = experiment: Herbicidal efficacy on paddy field weeds of pre-emergence stage (Pre), Test Example 1; conditions: 1000 g/ha as active ingredient, examined after 21 days
Description: as §1, §2

Scirpus juncoides [4] = experiment: Herbicidal effect on paddy field weeds of post-emergence stage (Post), Test Example 2; conditions: one-leaf stage, 1000 g/ha as active ingredient, examined after 21 days
Text: as §2, §3

Row | SMILES | Lindernia procumbens pre (herbicidal effect) (Lindernia procumbens [1]) | Lindernia procumbens post (herbicidal effect) (Lindernia procumbens [2]) | Scirpus juncoides pre (herbicidal effect) (Scirpus juncoides [3]) | Scirpus juncoides post (herbicidal effect) (Scirpus juncoides [4])
1 | CC(C)COC(=O)N(c1ccccc1CN1CCC(c2ccccc2F)OC1=O)S(=O)(=O)C(F)(F)F (centres unmarked) [Compound 1-255] | 5 (100% herbicidal effect, phytotoxicity) | 5 (100% herbicidal effect, phytotoxicity) |  | 
2 | Cc1ccccc1C1(C)CCN(Cc2ccccc2NS(=O)(=O)C(F)(F)F)C(=O)O1 (centres unmarked) [Compound 1-404] | 5 (100% herbicidal effect, phytotoxicity) | 5 (100% herbicidal effect, phytotoxicity) | 4 (90%-99% herbicidal effect, phytotoxicity) | 4 (90%-99% herbicidal effect, phytotoxicity)
3 | CN(c1ccccc1CN1CC(C)(C)C(c2ccccc2)OC1=O)S(=O)(=O)C(F)(F)F (centres unmarked) [Compound 1-268] | 5 (100% herbicidal effect, phytotoxicity) | 5 (100% herbicidal effect, phytotoxicity) | 4 (90%-99% herbicidal effect, phytotoxicity) | 4 (90%-99% herbicidal effect, phytotoxicity)
4 | CCOC(=O)N(c1ccccc1CN1CCC(c2ccc(Cl)cc2)(C2CC2)OC1=O)S(=O)(=O)C(F)(F)F (centres unmarked) [Compound 1-197] | 4 (90%-99% herbicidal effect, phytotoxicity) | 4 (90%-99% herbicidal effect, phytotoxicity) | 4 (90%-99% herbicidal effect, phytotoxicity) | 4 (90%-99% herbicidal effect, phytotoxicity)
5 | COC(=O)N(c1ccccc1CN1CCC(c2c(F)cccc2F)OC1=O)S(=O)(=O)C(F)(F)F (centres unmarked) [Compound 1-350] | 5 (100% herbicidal effect, phytotoxicity) | 5 (100% herbicidal effect, phytotoxicity) | 5 (100% herbicidal effect, phytotoxicity) | 4 (90%-99% herbicidal effect, phytotoxicity)
6 | CC(C)COC(=O)N(c1ccccc1CN1CCC(C)(c2ccccc2Cl)OC1=O)S(=O)(=O)C(F)(F)F (centres unmarked) [Compound 1-177] | 4 (90%-99% herbicidal effect, phytotoxicity) | 4 (90%-99% herbicidal effect, phytotoxicity) | 4 (90%-99% herbicidal effect, phytotoxicity) | 4 (90%-99% herbicidal effect, phytotoxicity)
7 | CN(c1ccccc1CN1CCC(C)(c2ccccc2)OC1=O)S(=O)(=O)C(F)(F)F (centres unmarked) [Compound 1-167] |  |  | 4 (90%-99% herbicidal effect, phytotoxicity) | 
8 | CC1CCN(Cc2ccccc2NS(=O)(=O)C(F)(F)F)C(=O)OC1 (centres unmarked) [Compound No. 2-23, 6-methyl-3-[2-(trifluoromethanesulfonylamino)benzyl]-[1,3]-oxazepan-2-one] | 4 (90%-99% herbicidal effect, phytotoxicity) |  | 4 (90%-99% herbicidal effect, phytotoxicity) | 4 (90%-99% herbicidal effect, phytotoxicity)
9 | CCC1(c2ccccc2)CCN(Cc2ccccc2N(C)S(=O)(=O)C(F)(F)F)C(=O)O1 (centres unmarked) [Compound 1-323] | 5 (100% herbicidal effect, phytotoxicity) | 5 (100% herbicidal effect, phytotoxicity) |  | 
10 | CN(c1ccccc1CN1CCC(c2ccccc2)(c2ccccc2)OC1=O)S(=O)(=O)C(F)(F)F [Compound 1-224] | 4 (90%-99% herbicidal effect, phytotoxicity) |  |  | 
11 | O=C1OC(c2c(F)cccc2F)CCN1Cc1ccccc1NS(=O)(=O)C(F)(F)F (centres unmarked) [Compound 1-349] | 5 (100% herbicidal effect, phytotoxicity) | 5 (100% herbicidal effect, phytotoxicity) | 5 (100% herbicidal effect, phytotoxicity) | 
12 | O=C1OCCCN1Cc1ccccc1NS(=O)(=O)C(F)(F)F [Compound No. 1-1, 3-[2-(trifluoromethanesulfonylamino)benzyl]-[1,3]-oxazinan-2-one] | 4 (90%-99% herbicidal effect, phytotoxicity) |  | 4 (90%-99% herbicidal effect, phytotoxicity) | 4 (90%-99% herbicidal effect, phytotoxicity)
13 | CCOCN(c1ccccc1CN1CCC(c2c(C)cccc2C)OC1=O)S(=O)(=O)C(F)(F)F (centres unmarked) [Compound 1-369] | 5 (100% herbicidal effect, phytotoxicity) | 5 (100% herbicidal effect, phytotoxicity) |  | 4 (90%-99% herbicidal effect, phytotoxicity)
14 | CCOCN(c1ccccc1CN1CC(C)(C)C(c2ccccc2)OC1=O)S(=O)(=O)C(F)(F)F (centres unmarked) [Compound 1-270] | 5 (100% herbicidal effect, phytotoxicity) | 5 (100% herbicidal effect, phytotoxicity) |  | 4 (90%-99% herbicidal effect, phytotoxicity)
15 | CN(c1ccccc1CN1CCC(c2ccccc2)OC1=O)S(=O)(=O)C(F)(F)F (centres unmarked) [Compound 1-246] | 5 (100% herbicidal effect, phytotoxicity) |  |  | 
16 | CCOCN(c1ccccc1CN1CCC(c2c(Cl)cccc2Cl)OC1=O)S(=O)(=O)C(F)(F)F (centres unmarked) [Compound 1-281] | 5 (100% herbicidal effect, phytotoxicity) | 5 (100% herbicidal effect, phytotoxicity) |  | 4 (90%-99% herbicidal effect, phytotoxicity)
17 | CN(c1ccccc1CN1CCC(c2ccccc2C(F)(F)F)OC1=O)S(=O)(=O)C(F)(F)F (centres unmarked) [Compound 1-301] | 5 (100% herbicidal effect, phytotoxicity) | 5 (100% herbicidal effect, phytotoxicity) |  | 
18 | CN(c1ccccc1CN1CCC(C)(C)OC1=O)S(=O)(=O)C(F)(F)F [Compound 1-54] |  |  | 4 (90%-99% herbicidal effect, phytotoxicity) | 4 (90%-99% herbicidal effect, phytotoxicity)
19 | CN(c1ccccc1CN1CCC2(CCCC2)OC1=O)S(=O)(=O)C(F)(F)F [Compound 1-145] |  |  | 4 (90%-99% herbicidal effect, phytotoxicity) | 4 (90%-99% herbicidal effect, phytotoxicity)
20 | CCOCN(c1ccccc1CN1CCC(c2ccccc2Cl)OC1=O)S(=O)(=O)C(F)(F)F (centres unmarked) [Compound 1-314] | 5 (100% herbicidal effect, phytotoxicity) | 5 (100% herbicidal effect, phytotoxicity) | 4 (90%-99% herbicidal effect, phytotoxicity) | 
21 | CC(C)COC(=O)N(c1ccccc1CN1CCC(C2CC2)(C2CC2)OC1=O)S(=O)(=O)C(F)(F)F [Compound 1-154] | 4 (90%-99% herbicidal effect, phytotoxicity) |  |  | 
22 | CC(C)COC(=O)N(c1ccccc1CN1CCC(c2ccccc2)OC1=O)S(=O)(=O)C(F)(F)F (centres unmarked) [Compound 1-244] | 5 (100% herbicidal effect, phytotoxicity) | 5 (100% herbicidal effect, phytotoxicity) |  | 
23 | CN(c1ccccc1CN1CCC(c2ccccc2F)OC1=O)S(=O)(=O)C(F)(F)F (centres unmarked) [Compound 1-257] | 5 (100% herbicidal effect, phytotoxicity) | 5 (100% herbicidal effect, phytotoxicity) | 4 (90%-99% herbicidal effect, phytotoxicity) | 
24 | CN(c1ccccc1CN1CCC(c2c(Cl)cccc2Cl)OC1=O)S(=O)(=O)C(F)(F)F (centres unmarked) [Compound 1-279] | 5 (100% herbicidal effect, phytotoxicity) | 5 (100% herbicidal effect, phytotoxicity) |  | 4 (90%-99% herbicidal effect, phytotoxicity)
25 | Cc1ccccc1C1CCN(Cc2ccccc2N(C)S(=O)(=O)C(F)(F)F)C(=O)O1 (centres unmarked) [Compound 1-290] | 5 (100% herbicidal effect, phytotoxicity) | 5 (100% herbicidal effect, phytotoxicity) |  | 4 (90%-99% herbicidal effect, phytotoxicity)
26 | CC(C)COC(=O)N(c1ccccc1CN1CCC(C)(c2ccccc2)OC1=O)S(=O)(=O)C(F)(F)F (centres unmarked) [Compound 1-165] | 4 (90%-99% herbicidal effect, phytotoxicity) |  | 4 (90%-99% herbicidal effect, phytotoxicity) | 4 (90%-99% herbicidal effect, phytotoxicity)
27 | CN(c1ccccc1CN1CCC(c2ccccc2Cl)OC1=O)S(=O)(=O)C(F)(F)F (centres unmarked) [Compound 1-312] | 5 (100% herbicidal effect, phytotoxicity) | 5 (100% herbicidal effect, phytotoxicity) |  | 
